Test results from US5776902A, “Boronophenyl analogs of phospholyrosines” (Trustees of Tufts University, priority 1995, dated 1998).
pIC50: −log10 of the molar value.

Columns and labels:
lck-SH2 = target: T1, lck-SH2 (Homo sapiens, UniProt P06239); experiment: IDEXX lck-SH2 binding assay (GST-SH2 beads, FITC-labeled peptide EPQYEEIPIYL); conditions: inhibition of binding of FITC-labeled peptide to GST-lck SH2 beads (FIG. 7)
T1 construct: made in house; host or cells: E. coli
Procedure: In order to assess the inhibitory activity of the present peptidomimetics, the ability of the subject compounds to inhibit the interaction between a specific peptide and an SH2 domain was determined. Various SH2 domains were subcloned in frame with the glutathione-S-transferase affinity tag of the pGEX vector system (Pharmacia catalog no. PGEX-4T-3). The resulting pGEX-E2 construct encoded a glutathione-S-transferase (GST)/SH2 fusion protein (Smith et al. (1988) Gene 67:31-40). The pGEX construct was introduced into E. coli by transfromation, and the transformants grown in liquid media (LB) in the presence of IPTG. Purification of GST/E2 fusion protein was by standard protocols (Current Protocols in Molecular Biology, eds. Ausubel et al. (NY:John Wiley & Sons, 1991); Pharmacia instruction booklet (for catalog no. 27-4570)) using a glutathione-sepharose column (Pharmacia catalog no. 27-4570). Briefly, the cells were pelleted and resuspended in buffer A (50 mM TRIS (pH7.5), 2 mM EDTA, 250 mM NaCl, 5% glycerol (V/V), 1% Tween (V/V), 1% Triton X 100 (V/V)), to which 2 mM PMSF and 15 mM 2-mercaptoethanol were added. […]

[1] = target: T2, SH2 mediated interaction of middle T and fyn (Homo sapiens, UniProt P06241); experiment: Effect on Middle T/fyn interaction (GST-Fyn pull-down of 32P-labeled middle T, autoradiography); assay type: binding; conditions: GST-Fyn on glutathione-Sepharose beads, 32P-labeled polyoma Middle T, SDS gel autoradiography (FIG. 6); inhibitor 3.95×10^-4 M to 3.95×10^-5 M
T2 construct: host or cells: middle T: Sf9 cells (baculovirus co-expression with src)
Procedure: Approximately 10 μg of a GST-Fyn fusion protein bound to 10 μl of glutathione-Sepharose beads were incubated with 90 μl of buffer (TEB, pH 9.0) and 10 μl of DMSO or DMSO containing an isomer (#1 or #2) of compound 36 (lanes 2 and 3 equal 3.95×10^-4 M; lane 4 equals 1.32×10^-4 M; lane 5 equals 3.95×10^-5 M). Lane 1 contains no inhibitor. The lanes labeled "MT 315" (lanes 6 and 7) are reaction mixutures as above, but having 20 μg of peptide (middle T residues EEYMPMED) instead of the benzodiazepine 36. The label "pY" indicates the peptide was phosphorylated, while unphosphoryalated peptide is designated as "-". The reaction mixtures were incubated for 1 hour, then 100 μL ^32 P-labeled Middle T (polyoma), prepared from baculovirus co-expression of middle T and src in Sf9 cells, were added to each reaction and incubated for 1 hour more at 4° C. The sepharose was washed with twice with PBS, and once with distilled water, boiled in SDS dissociation buffer, and run on a 7.5% acrylamide SDS gel. Labeled MT was visualized on the gel by autoradiography, and the inhibition of MT/fyn interaction determined.

T1 sequence (P06239 127-224 limits assumed): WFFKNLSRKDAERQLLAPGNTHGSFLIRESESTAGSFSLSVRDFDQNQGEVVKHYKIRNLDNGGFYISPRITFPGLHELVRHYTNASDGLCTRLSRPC
T2 sequence (P06241 whole entry, species assumed): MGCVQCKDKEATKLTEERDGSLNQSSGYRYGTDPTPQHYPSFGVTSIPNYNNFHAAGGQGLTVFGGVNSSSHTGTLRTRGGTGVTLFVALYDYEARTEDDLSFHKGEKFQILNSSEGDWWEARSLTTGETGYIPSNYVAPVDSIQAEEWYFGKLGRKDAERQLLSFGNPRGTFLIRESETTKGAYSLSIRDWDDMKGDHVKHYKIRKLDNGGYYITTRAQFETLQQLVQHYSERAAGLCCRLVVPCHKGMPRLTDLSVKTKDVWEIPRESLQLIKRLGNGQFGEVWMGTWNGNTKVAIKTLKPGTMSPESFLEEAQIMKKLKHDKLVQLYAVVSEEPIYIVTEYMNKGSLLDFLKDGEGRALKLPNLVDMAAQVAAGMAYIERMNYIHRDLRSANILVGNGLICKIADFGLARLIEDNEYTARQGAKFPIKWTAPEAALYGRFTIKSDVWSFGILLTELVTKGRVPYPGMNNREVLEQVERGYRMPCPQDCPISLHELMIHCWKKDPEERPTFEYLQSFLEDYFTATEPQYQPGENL

SMILES	pIC50 (lck-SH2)	inhibition of MT/fyn interaction [1]
CC[C@H](C)[C@H](NC(=O)CN1C(=O)C(NC(=O)[C@H](Cc2ccc(OP(=O)(O)O)cc2)NC(=O)OCC2c3ccccc3-c3ccccc32)N=C(c2ccccc2)c2ccccc21)C(=O)OC (stereo partly drawn) [FMOC-derivative, 1,3-Dihydro-1-[(methoxy-L-isoleucyl)carbonylmethyl)-5-phenyl-3(R,S)-{[(N-fluorenylmethoxycarbonyl)phosphono-L-tyrosyl]amino}-2H-1,4-benzodiazepin-2-one]	4.32	
CC[C@H](C)[C@H](NC(=O)CN1C(=O)C(NC(=O)[C@H](Cc2ccc(OP(=O)(O)O)cc2)NC(C)=O)N=C(c2ccccc2)c2ccccc21)C(=O)OC (stereo partly shown) [compound 36]	3.57	both isomers of 36 displayed inhibitory action
CC[C@H](C)[C@H](NC(=O)CN1C(=O)C(NC(=O)[C@H](Cc2ccc(OP(=O)(O)O)cc2)NC(C)=O)N=C(c2ccccc2)c2ccccc21)C(=O)OC (single isomer, unassigned; isomer #2) [isomer #2]		more potent inhibitor
